Assay results from ChEMBL document CHEMBL1201862, “PubChem BioAssay data set” (2004).
The source made the active and inactive calls.

What was measured:
[1] = target: Intestinal-type alkaline phosphatase (Homo sapiens, UniProt P09923); assay: human intestinal alkaline phosphatase activators, dose response, biochemical, luminescence, uHTS hits (AID 463120); type: functional
Nonstructural protein 1 = Nonstructural protein 1 (Influenza A virus, UniProt Q194T2); type: functional, Influenza A virus (A/California/07/2009(H1N1))
Nonstructural protein 1, sequence (Q194T2 whole entry): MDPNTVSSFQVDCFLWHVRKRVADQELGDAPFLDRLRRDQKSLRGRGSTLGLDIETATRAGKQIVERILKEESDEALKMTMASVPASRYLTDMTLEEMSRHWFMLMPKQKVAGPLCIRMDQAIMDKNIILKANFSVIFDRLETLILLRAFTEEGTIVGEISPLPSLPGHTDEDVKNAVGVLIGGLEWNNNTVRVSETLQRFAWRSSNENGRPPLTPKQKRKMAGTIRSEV

Trypsin = Trypsin (Sus scrofa, UniProt P00761); assay: trypsin protease activity blockade – biochemical, quenched peptide fluorescence, cherry-pick, selectivity assay for Rce1 protease inhibitor project, dose response (AID 488789)
[2] = target: Peroxisome proliferator-activated receptor gamma/Nuclear receptor coactivator 2 (Homo sapiens, UniProt P37231); assay: (§1) TR-FRET dose response biochemical High Throughput Screening assay for agonists of the steroid receptor coactivator 2 (SRC-2) recruitment by the peroxisome proliferator-activated receptor gamma (PPAR gamma): non-selective agonists. [Related pubchem assays: 1297, 1032 ]; type: functional
Peroxisome proliferator-activated receptor gamma/Nuclear receptor coactivator 2, sequence (P37231 whole entry): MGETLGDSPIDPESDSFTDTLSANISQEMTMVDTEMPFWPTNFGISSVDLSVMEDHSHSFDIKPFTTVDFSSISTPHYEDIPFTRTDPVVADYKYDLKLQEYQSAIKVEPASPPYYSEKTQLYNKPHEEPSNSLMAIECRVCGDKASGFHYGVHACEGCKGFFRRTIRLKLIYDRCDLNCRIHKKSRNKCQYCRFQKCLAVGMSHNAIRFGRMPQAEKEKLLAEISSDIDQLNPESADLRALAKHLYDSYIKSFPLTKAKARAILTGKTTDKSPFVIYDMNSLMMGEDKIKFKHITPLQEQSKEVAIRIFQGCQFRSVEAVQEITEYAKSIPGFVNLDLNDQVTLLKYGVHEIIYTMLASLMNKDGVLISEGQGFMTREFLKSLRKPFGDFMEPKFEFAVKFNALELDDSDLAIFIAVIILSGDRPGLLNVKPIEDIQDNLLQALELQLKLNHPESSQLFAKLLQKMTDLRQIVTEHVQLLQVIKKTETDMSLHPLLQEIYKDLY
Peroxisome proliferator-activated receptor gamma/Nuclear receptor coactivator 2, sequence (Q15596 whole entry, further chain): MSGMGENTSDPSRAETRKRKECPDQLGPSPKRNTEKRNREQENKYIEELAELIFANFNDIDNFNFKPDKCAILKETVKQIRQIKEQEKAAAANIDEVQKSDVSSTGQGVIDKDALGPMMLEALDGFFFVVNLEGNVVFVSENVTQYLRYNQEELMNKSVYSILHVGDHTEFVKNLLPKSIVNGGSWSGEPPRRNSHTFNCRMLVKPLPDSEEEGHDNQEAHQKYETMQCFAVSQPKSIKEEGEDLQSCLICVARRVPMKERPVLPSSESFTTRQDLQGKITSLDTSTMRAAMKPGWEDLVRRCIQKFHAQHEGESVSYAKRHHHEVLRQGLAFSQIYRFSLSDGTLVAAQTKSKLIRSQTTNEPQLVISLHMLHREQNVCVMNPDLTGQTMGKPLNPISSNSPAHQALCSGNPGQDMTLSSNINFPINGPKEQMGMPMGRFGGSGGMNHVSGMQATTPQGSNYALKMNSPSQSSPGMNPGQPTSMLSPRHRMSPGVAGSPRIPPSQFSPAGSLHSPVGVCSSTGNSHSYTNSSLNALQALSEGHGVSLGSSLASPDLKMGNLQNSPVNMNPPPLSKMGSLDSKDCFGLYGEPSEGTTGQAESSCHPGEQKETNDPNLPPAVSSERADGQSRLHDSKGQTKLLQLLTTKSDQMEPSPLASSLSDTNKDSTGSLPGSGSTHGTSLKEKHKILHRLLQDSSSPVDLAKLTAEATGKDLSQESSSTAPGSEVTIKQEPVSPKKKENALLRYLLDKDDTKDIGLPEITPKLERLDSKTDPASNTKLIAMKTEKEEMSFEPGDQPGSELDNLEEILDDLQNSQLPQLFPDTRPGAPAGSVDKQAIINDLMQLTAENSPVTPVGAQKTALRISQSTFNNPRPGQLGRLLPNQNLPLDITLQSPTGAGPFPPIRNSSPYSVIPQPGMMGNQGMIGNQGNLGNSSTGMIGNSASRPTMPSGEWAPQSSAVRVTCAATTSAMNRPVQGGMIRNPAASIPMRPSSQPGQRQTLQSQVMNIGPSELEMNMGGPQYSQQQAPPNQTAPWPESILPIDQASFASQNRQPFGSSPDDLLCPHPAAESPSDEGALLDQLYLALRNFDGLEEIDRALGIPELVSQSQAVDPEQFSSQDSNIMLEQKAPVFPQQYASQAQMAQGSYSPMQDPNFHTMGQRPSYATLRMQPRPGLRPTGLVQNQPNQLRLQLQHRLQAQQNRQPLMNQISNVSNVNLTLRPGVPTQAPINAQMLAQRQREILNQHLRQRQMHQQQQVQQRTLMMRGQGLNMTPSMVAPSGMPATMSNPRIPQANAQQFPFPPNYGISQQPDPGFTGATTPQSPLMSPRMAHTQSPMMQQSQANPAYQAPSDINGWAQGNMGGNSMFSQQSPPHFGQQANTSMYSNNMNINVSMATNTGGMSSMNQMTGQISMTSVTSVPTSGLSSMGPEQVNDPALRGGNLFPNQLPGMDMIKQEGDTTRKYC

[3] = viability of uninfected HEp-2 cells – cell-based, HTS, cytotoxicity control for RSV inhibitor project, dose response (AID 2410); type: functional; details: human respiratory syncytial virus
[4] = target: Peroxisome proliferator-activated receptor gamma/Nuclear receptor coactivator 1 (Homo sapiens, UniProt P37231); assay: as §1, with “1 (SRC-1)” for “2 (SRC-2)”, “assays (depositor defined):AID1300, AID1808, AID504735, AID631]” for “assays: 1297, 1032 ]”; type: protein assay
Peroxisome proliferator-activated receptor gamma/Nuclear receptor coactivator 1, sequence (P37231 whole entry): as the sequence (P37231 whole entry) above
Peroxisome proliferator-activated receptor gamma/Nuclear receptor coactivator 1, sequence (Q15788 whole entry, further chain): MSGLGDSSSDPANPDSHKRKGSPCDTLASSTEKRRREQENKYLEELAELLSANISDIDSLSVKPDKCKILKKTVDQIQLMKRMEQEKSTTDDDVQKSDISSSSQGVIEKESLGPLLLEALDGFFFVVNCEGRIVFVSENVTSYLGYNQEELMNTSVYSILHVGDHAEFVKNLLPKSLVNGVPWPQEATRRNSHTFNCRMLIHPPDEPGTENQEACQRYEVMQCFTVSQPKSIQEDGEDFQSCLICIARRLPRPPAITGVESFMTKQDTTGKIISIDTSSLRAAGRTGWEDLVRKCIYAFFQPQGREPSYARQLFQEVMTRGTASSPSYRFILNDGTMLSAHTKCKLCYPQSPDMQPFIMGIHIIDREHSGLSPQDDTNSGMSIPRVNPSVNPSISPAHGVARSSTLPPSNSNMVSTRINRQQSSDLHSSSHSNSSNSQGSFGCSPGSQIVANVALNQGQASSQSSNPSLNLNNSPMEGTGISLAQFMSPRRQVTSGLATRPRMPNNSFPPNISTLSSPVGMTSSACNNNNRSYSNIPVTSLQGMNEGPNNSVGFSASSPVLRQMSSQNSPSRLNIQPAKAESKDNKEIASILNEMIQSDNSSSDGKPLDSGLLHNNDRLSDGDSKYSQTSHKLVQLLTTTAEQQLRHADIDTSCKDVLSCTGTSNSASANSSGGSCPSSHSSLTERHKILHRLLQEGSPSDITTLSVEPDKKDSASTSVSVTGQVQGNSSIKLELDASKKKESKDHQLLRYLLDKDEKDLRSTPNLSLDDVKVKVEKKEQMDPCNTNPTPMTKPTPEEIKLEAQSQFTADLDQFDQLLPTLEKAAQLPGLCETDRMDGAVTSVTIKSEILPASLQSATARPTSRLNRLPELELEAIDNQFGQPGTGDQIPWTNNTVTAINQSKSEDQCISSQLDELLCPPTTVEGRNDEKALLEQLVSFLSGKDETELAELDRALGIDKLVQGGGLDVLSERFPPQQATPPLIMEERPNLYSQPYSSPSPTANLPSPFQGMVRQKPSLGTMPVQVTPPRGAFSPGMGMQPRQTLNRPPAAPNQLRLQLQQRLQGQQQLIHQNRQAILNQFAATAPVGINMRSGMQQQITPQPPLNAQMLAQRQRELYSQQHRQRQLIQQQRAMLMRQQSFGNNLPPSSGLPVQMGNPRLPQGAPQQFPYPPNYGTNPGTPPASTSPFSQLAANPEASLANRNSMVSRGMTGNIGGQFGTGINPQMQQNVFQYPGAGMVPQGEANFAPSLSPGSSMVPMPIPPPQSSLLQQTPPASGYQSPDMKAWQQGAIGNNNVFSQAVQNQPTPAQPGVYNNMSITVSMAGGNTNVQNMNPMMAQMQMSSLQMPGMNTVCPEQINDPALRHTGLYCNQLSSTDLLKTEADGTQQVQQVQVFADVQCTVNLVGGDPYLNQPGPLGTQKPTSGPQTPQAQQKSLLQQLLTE

[5] = target: Peroxisome proliferator-activated receptor gamma/Nuclear receptor coactivator 3 (Homo sapiens, UniProt P37231); assay: as §1, with “3 (SRC-3)” for “2 (SRC-2)”, “1301 (Confirmation screen.), 1048 (Primary screen.)]” for “1297, 1032 ]”; type: functional
Aminopeptidase N = target: T1, Aminopeptidase N (Plasmodium falciparum FcB1/Columbia, UniProt O96935); assay: malaria alanyl aminopeptidase activity blockers – biochemical, fluorogenic H-Leu-NHMec substrate, 1536-well (AID 1445); design: species or system Plasmodium falciparum 3D7, 3D7
T1 sequence (O96935 whole entry): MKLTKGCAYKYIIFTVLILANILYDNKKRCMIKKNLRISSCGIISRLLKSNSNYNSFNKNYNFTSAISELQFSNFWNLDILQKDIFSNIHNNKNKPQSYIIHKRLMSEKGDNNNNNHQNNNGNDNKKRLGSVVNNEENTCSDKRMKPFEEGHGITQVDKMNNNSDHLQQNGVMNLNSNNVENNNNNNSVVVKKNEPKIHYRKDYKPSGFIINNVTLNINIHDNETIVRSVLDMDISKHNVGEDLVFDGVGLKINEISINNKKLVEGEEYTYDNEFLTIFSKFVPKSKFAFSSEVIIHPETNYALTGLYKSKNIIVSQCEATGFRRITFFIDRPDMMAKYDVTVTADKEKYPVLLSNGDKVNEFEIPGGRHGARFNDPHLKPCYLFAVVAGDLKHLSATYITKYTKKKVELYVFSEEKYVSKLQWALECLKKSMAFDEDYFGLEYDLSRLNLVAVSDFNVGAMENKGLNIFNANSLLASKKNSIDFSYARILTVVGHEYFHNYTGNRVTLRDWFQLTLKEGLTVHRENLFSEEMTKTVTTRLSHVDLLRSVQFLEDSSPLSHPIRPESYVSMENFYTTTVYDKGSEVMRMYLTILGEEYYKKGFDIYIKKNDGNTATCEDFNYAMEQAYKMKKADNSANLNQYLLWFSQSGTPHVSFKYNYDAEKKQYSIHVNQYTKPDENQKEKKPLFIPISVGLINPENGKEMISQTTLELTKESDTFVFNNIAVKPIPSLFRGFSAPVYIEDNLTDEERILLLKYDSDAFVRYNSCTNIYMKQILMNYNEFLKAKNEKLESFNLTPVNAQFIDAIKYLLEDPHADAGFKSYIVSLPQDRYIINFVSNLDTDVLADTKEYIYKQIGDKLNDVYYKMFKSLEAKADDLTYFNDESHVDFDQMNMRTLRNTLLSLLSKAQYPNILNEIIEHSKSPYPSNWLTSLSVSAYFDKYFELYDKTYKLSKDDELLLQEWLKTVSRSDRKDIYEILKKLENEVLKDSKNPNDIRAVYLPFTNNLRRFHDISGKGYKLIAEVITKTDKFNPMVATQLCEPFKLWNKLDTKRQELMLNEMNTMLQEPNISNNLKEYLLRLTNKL

[6] = THP-1 cell cytotoxicity, dose response, cytotoxicity control for non-replicating M. tuberculosis project (AID 489025); type: functional
[7] = Vero E6 cell cytotoxicity, dose response, cytotoxicity control for non-replicating M. tuberculosis project, secondary assay (AID 492998); type: functional, VeroE6; details: Vero C1008
cells = type: functional
[8] = HepG2 cell cytotoxicity, dose response, cytotoxicity control for non-replicating M. tuberculosis project (AID 489018); type: functional; details: Mycobacterium tuberculosis
[9] = target: T2, Voltage-gated N-type calcium channel alpha-1B subunit/Amyloid beta A4 precursor protein-binding family A member 1 (Homo sapiens, UniProt Q00975+Q02410); type: protein assay
[10] = target: T2, Voltage-gated N-type calcium channel alpha-1B subunit/Amyloid beta A4 precursor protein-binding family A member 1; type: protein assay; remark: listed apart in the source
HEK293 = assay: cells; details: Homo sapiens;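 note: cells exposed to compound for 14 hours overnight before viability readout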
[11] = target: T3, Nucleotide-binding oligomerization domain-containing protein 1 (Homo sapiens, UniProt Q9Y239); assay: blockers of NOD1 pathway activity – revised, SAR follow-up (AID 2333); type: functional
T3 sequence (Q9Y239 whole entry): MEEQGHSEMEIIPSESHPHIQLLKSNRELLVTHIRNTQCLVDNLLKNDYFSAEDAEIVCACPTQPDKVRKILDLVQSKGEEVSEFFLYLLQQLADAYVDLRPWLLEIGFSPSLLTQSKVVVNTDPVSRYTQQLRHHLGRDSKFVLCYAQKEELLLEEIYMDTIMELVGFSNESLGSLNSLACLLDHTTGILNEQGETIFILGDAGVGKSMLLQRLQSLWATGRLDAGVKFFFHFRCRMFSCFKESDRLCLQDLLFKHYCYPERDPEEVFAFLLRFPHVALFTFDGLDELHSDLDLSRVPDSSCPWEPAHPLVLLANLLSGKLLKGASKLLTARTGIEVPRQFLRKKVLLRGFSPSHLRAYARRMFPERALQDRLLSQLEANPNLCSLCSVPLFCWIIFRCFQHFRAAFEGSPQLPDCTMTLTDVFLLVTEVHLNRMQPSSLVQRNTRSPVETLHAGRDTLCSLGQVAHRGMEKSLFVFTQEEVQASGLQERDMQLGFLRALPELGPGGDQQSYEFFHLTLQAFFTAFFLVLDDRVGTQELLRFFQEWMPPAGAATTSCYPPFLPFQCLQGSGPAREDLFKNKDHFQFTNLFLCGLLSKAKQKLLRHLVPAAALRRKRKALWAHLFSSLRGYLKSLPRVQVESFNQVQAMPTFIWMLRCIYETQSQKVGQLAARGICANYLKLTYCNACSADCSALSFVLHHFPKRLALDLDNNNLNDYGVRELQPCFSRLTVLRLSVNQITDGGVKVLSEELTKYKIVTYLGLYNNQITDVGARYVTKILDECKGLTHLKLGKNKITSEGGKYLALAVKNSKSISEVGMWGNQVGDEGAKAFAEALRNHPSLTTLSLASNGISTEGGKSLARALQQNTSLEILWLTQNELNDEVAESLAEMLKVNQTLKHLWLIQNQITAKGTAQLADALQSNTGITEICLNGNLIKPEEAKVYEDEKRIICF

Tumor necrosis factor = Tumor necrosis factor (Homo sapiens, UniProt P01375); assay: analog potency on TNFa NF-kB signaling – cell-based, revised, SAR follow-up (AID 2337); type: functional
Tumor necrosis factor, sequence (P01375 whole entry, the tested form may be a part): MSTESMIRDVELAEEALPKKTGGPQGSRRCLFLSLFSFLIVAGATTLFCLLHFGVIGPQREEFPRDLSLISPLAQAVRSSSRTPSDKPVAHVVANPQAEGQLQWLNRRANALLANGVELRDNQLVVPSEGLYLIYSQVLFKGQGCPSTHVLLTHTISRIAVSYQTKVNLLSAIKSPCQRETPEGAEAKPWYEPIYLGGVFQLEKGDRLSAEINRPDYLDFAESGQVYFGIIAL

[12] = target: Nucleotide-binding oligomerization domain-containing protein 2 (Homo sapiens, UniProt Q9HC29); assay: PubChem AID 2334; type: functional
Vero = assay: cells; type: functional; details: Chlorocebus sabaeus
[13] = target: T4, Microphthalmia-associated transcription factor (Homo sapiens, UniProt O75030); assay: reducers of TRPM1 reporter luminescence, concentration series – cell-based, SK-MEL-5, cherry-picked, set 3, MITF inhibitor project, dose response (AID 493073); type: functional;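 note: SK-MEL-5 melanoma cells with luciferase driven by the MITF target TRPM1 promoter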
T4 sequence (O75030 whole entry): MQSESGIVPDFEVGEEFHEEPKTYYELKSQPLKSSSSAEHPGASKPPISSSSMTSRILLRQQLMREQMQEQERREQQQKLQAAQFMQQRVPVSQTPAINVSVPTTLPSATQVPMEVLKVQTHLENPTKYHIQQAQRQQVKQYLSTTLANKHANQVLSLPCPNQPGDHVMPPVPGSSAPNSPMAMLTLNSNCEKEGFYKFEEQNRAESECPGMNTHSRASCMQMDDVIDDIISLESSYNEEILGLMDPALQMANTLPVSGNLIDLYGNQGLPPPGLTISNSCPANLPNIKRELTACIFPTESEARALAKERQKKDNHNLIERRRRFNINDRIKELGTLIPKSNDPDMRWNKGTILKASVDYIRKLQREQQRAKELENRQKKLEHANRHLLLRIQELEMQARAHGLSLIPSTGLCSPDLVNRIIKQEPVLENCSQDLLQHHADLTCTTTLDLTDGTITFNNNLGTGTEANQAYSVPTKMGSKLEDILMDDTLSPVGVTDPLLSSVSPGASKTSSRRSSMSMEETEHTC

CAAX prenyl protease 2 = target: T5, CAAX prenyl protease 2 (Saccharomyces cerevisiae S288c, UniProt Q03530); type: biochemical
T5 sequence (Q03530 whole entry): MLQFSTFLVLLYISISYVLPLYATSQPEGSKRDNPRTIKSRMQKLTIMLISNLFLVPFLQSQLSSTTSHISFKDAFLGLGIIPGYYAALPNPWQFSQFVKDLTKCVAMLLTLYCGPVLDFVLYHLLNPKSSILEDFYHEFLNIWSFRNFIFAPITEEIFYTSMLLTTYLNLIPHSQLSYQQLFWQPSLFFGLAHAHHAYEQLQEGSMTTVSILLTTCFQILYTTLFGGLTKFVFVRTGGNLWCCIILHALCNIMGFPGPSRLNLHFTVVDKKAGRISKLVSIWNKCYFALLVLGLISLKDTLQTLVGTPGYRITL

Protein skinhead-1 = target: T6, Protein skinhead-1 (Caenorhabditis elegans, UniProt P34707); type: functional
T6 sequence (P34707 whole entry): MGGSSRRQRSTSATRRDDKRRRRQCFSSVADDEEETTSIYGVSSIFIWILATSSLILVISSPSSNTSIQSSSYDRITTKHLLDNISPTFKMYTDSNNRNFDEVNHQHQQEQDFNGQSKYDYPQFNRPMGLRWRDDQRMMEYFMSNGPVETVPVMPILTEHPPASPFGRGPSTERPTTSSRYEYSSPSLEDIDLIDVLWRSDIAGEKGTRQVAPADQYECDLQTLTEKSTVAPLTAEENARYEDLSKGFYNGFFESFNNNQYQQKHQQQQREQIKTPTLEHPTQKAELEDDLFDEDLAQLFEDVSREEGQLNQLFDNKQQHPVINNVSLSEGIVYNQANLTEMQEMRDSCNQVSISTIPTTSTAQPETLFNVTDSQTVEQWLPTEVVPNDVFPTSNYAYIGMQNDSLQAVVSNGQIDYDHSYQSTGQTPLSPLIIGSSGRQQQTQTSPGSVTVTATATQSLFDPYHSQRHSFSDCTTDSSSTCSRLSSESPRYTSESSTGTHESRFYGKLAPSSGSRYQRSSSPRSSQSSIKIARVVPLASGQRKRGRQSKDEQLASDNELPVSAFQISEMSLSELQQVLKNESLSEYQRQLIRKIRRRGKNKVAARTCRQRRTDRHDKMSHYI

Intestinal-type alkaline phosphatase, sequence (P09923 whole entry): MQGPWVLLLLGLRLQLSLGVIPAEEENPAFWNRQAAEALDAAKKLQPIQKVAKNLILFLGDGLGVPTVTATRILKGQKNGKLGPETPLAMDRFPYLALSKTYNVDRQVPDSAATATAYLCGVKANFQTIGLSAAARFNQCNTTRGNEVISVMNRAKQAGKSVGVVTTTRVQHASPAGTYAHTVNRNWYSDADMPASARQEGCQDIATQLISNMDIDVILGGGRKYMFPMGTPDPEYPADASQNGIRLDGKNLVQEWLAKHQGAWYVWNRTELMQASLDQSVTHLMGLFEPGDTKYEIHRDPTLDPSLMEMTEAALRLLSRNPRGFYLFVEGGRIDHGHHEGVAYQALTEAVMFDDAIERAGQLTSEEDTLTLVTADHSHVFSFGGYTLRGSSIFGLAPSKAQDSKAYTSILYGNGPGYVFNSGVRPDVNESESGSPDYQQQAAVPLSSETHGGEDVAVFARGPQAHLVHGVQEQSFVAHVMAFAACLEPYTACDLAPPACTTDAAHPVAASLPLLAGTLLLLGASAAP

Structure (SMILES): O=C(NCCCN1CCOCC1)C(=O)N/N=C/c1ccccc1O
- EC50 [1]: 19.2 µM (active)
- IC50 (Nonstructural protein 1): 11.2 µM (active)

Structure (SMILES): O=C1OCCN1C(=O)[C@H]1[C@H](c2ccc(F)cc2)C(c2ccc(F)cc2)=NN1c1ccc(Br)cc1
- AC50 (Trypsin): 14.1 µM (active)

Structure (SMILES): CCc1ccc(-n2c(SCc3cc(=O)n4cc(Br)ccc4n3)nc3nncc-3c2O)cc1
- EC50 [2]: 14.4 µM (not active)
- CC50 [3]: 17 µM (active)
- EC50 [4]: > 79.4 µM (inactive)
- EC50 [5]: > 79.4 µM (not active)

Structure (SMILES): Cc1nn(Cc2ccccc2Cl)c(C)c1C(=O)NCCN1C(=O)S/C(=C\c2ccccc2)C1=O
- EC50 [2]: > 79.4 µM (not active)
- EC50 [4]: > 79.4 µM (inactive)
- EC50 [5]: > 79.4 µM (not active)

Structure (SMILES): CSCCC(C(=O)NC1=NCCS1)N1C(=O)c2ccccc2C1=O (stereo not given)
- IC50 (Aminopeptidase N): 17.8 µM (active)

Structure (SMILES): O=C(NCc1ccc2c(c1)OCO2)C1CCCN1C(=O)Nc1cccc(F)c1 (stereo not given)
- IC50 (Aminopeptidase N): 75 µM (active)

Structure (SMILES): CCOc1ccc2nc(NC(=O)c3cnc(C)cn3)sc2c1
- CC50 [6]: > 40 µM (active)
- CC50 [7]: 12.7 µM (active)
- IC50 (cells): 6.53 µM (active)
- CC50 [8]: > 20 µM (active)

Structure (SMILES): O=C(O)c1ccc(Nc2nc(-c3cc4ccccc4oc3=O)cs2)cc1O
- IC50 [9]: > 50 µM (inactive)
- IC50 [10]: 7.29 µM (active)
- IC50 (Aminopeptidase N): 9.7 µM (active)

Structure (SMILES): N=c1n(CCN2CCCCC2)c2ccccc2n1CC(=O)c1ccc(Cl)c(Cl)c1
- CC50 [6]: 18.2 µM (active)
- IC50 (cells): 23.9 µM (active)
- CC50 [8]: 11.9 µM (active)

Structure (SMILES): CC(=O)N1CCc2cc(S(=O)(=O)N3CCN(c4ccc(C#N)cc4)CC3)ccc21
- IC50 (HEK293): > 20 µM (inactive)
- IC50 [11]: 5.87 µM (active)
- IC50 (Tumor necrosis factor): 8.79 µM (active)
- IC50 [12]: 9.24 µM (active)

Structure (SMILES): CCC(=O)N1CCc2cc(S(=O)(=O)N3CCN(c4ccc(Cl)cc4)CC3)ccc21
- IC50 (HEK293): > 20 µM (inactive)
- IC50 [11]: > 20 µM (inactive)
- IC50 (Tumor necrosis factor): > 20 µM (inactive)
- IC50 [12]: > 20 µM (inactive)

Structure (SMILES): O=C(Nc1ccccc1N1CCN(C(=O)c2ccccc2)CC1)c1ccc([N+](=O)[O-])o1
- CC50 (Vero): 21.6 µM (active)
- AC50 [13]: 11.4 µM (active)

Structure (SMILES): CCCOc1ccc(-c2nc3c(c(=O)[nH]c(=O)n3Cc3ccccc3)n2CCO)cc1OCC
- AC50 (CAAX prenyl protease 2): 14.5 µM (active)

Structure (SMILES): O=C(Nc1ccc([N+](=O)[O-])cc1)c1ccccc1
- IC50 (Protein skinhead-1): > 100 µM (inactive)
- AC50 [13]: 40.2 µM (active)
